Assay results published in BindingDB's records for doi:10.1021/jm00207a020 (1978).

Target: Adenylate cyclase type 1 (Rattus norvegicus, UniProt D4A3N4)
Assay: Inhibition of dopamine-sensitive rat brain adenylyl cyclase activity assessed as cAMP level

Chain of Adenylate cyclase type 1 (D4A3N4 whole entry): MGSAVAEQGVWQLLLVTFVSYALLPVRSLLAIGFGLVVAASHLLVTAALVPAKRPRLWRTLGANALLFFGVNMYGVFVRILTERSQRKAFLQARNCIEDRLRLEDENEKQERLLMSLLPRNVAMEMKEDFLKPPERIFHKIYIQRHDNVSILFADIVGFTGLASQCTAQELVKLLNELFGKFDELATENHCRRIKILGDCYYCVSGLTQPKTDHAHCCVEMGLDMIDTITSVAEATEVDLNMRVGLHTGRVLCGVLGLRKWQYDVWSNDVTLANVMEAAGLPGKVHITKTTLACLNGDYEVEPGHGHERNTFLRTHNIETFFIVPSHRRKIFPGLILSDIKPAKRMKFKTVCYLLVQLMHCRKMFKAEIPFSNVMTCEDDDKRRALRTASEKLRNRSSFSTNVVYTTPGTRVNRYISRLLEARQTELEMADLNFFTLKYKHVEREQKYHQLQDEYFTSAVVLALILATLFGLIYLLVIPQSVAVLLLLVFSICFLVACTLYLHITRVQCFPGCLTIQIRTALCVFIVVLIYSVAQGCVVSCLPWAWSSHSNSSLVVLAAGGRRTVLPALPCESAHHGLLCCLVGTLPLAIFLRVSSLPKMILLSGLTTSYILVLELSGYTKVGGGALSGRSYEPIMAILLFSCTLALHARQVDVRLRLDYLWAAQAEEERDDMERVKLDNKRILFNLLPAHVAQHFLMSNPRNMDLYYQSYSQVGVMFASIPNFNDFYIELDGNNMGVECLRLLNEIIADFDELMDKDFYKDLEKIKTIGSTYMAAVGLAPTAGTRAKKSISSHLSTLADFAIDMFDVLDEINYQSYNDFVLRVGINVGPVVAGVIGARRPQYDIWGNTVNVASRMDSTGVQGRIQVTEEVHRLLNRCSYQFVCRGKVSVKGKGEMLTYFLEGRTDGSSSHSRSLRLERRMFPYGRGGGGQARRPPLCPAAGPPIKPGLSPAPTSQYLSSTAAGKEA

| SMILES | IC50 [nM] |
| --- | --- |
| c1ccc(C2=Nc3ccccc3N=C(N3CCC(c4ccccc4)CC3)C2)cc1 | 4.5 |
| CN1CCN(C2=Nc3cc(Cl)ccc3Nc3ccccc32)CC1 [8-Chloro-11-(4-methyl-piperazin-1-yl)-5H-dibenzo[b,e][1,4]diazepine(Clopazine)] | 1.4 |
